Tests used:
[1] = molecular target: 5-hydroxytryptamine receptor 1D (Homo sapiens, UniProt P28221); experiment: Affinity for 5-hydroxytryptamine 1D receptor subtype
[2] = molecular target: T1, 5-hydroxytryptamine receptor 1B (Homo sapiens, UniProt P28222); experiment: The compound was evaluated for antagonist potency at human cloned 5-hydroxytryptamine 1B receptor
[3] = molecular target: T1, 5-hydroxytryptamine receptor 1B; experiment: Affinity for 5-hydroxytryptamine 1B receptor subtype
[4] = molecular target: T2, 5-hydroxytryptamine receptor 1A (Homo sapiens, UniProt P08908); experiment: Affinity for 5-hydroxytryptamine 1A receptor subtype
T2 sequence (P08908 whole entry): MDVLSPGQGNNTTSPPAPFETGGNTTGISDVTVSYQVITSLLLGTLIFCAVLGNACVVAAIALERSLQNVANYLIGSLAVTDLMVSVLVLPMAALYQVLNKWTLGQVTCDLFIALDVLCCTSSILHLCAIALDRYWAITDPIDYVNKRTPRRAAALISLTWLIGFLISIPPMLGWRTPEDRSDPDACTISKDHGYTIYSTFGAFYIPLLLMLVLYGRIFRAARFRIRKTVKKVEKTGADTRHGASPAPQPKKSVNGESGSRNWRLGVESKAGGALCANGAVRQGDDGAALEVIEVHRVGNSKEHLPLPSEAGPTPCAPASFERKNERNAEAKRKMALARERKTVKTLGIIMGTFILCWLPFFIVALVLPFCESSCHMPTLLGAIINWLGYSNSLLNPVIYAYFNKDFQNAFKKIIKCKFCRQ

[5] = molecular target: T1, 5-hydroxytryptamine receptor 1B; experiment: The compound was evaluated for intrinsic activity against human cloned 5-hydroxytryptamine 1B receptor
[6] = molecular target: T1, 5-hydroxytryptamine receptor 1B; experiment: The compound was evaluated for intrinsic activity against human cloned 5-hydroxytryptamine 1B receptor; silent antagonist; format: functional
[7] = molecular target: T1, 5-hydroxytryptamine receptor 1B; experiment: The compound was evaluated for intrinsic activity against human cloned 5-hydroxytryptamine 1B receptor; Slient antagonist; format: functional; conditions: filed as antagonist

Chain of 5-hydroxytryptamine receptor 1D (P28221 whole entry): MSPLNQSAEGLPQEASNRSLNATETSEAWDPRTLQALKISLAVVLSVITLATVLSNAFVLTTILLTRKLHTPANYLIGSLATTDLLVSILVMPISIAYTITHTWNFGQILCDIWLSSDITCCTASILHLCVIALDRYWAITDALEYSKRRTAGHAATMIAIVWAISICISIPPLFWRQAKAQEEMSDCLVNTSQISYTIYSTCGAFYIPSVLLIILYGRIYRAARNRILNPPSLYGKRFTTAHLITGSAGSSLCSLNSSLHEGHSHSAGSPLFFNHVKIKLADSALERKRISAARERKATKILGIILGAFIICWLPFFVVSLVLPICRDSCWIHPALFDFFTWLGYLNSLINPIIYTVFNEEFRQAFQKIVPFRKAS
T1 sequence (P28222 whole entry): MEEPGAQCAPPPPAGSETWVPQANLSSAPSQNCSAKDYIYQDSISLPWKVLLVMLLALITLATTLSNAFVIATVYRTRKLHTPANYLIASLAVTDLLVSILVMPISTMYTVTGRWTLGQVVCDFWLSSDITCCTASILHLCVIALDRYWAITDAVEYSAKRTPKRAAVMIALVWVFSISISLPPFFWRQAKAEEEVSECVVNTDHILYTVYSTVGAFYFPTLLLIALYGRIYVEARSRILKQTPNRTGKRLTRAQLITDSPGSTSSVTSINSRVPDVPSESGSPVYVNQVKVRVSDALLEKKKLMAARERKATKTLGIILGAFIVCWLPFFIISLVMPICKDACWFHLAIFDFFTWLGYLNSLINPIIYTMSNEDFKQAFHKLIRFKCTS

SMILES | Ki [1] [nM] | KB [2] [nM] | Ki [3] [nM] | Ki [4] [nM] | Kb [5] [nM] | Kb [6] [nM] | Intrinsic activity [7]
COc1ccc(NC(=O)N2CCN(c3ccc(C)cc3C)CC2)cc1N1CCN(C)CC1 | 88 | 1.9 | 1.8 | 571 |  |  | 
COc1ccc(NC(=O)N2CCN(c3cccc4c3CCCC4)CC2)cc1N1CCN(C)CC1 | 26 |  | 0.5 | 257 | 39 |  | 
Cc1ccccc1N1CCN(C(=O)COc2ccc(Cl)c(N3CCN(C)CC3)c2)CC1 | 240 |  | 11 | > 1000 |  | 38 | 
COc1cccc(N2CCN(C(=O)Nc3ccc(OC)c(N4CCN(C)CC4)c3)CC2)c1 | 70 |  | 8 | 79 |  |  | 
COc1ccc(NC(=O)c2ccc(-c3ccc(-c4noc(C)n4)cc3C)cc2)cc1N1CCN(C)CC1 [GR-127935] |  |  | 0.14 | 72 |  |  | 
COc1ccc(NC(=O)N2CCN(c3ccccc3)CC2)cc1N1CCN(C)CC1 | 340 |  | 18 | 450 | 27 |  | 
COc1ccc(NCC(=O)N2CCN(c3ccccc3C)CC2)cc1N1CCN(C)CC1 | 420 |  | 40 |  |  | 195 | 
Cc1ccccc1N1CCN(C(=O)Oc2ccc(Cl)c(N3CCN(C)CC3)c2)CC1 | 3.6 |  | 150 | > 1000 |  |  | Antagonist
COc1ccc(NC(=O)N2CCN(c3c(C)cccc3C)CC2)cc1N1CCN(C)CC1 | 37 | 10 | 1.3 | 393 |  |  | 
Cc1nc(-c2ccc(-c3ccc(C(=O)N4CCc5cc6c(cc54)C4(CCN(C)CC4)CO6)cc3)c(C)c2)no1 [SB-224289] |  |  |  | > 1000 |  |  | 
COc1ccc(NC(=O)N2CCN(c3ccccc3C)CC2)cc1N1CCN(C)CC1 |  |  |  | 390 |  | 12 | 
COc1ccc(N2CCN(C(=O)Nc3ccc(OC)c(N4CCN(C)CC4)c3)CC2)cc1 |  |  |  |  | 12 |  | 
COc1ccc(NC(=O)N2CCN(c3ccccc3OC)CC2)cc1N1CCN(C)CC1 | 90 |  |  |  | 16 |  | 
